Four compounds from publication PMC8402726 (Viruses, 2021) can be followed below.

SMILES strings stand for the structures. Where two headings read alike, the source gives them in different places.

What is called EC50 is the midpoint of the concentration-response curve. As a reminder, the IC50 is the point on the concentration scale where inhibition reaches its midpoint. A word on the viability: it is a per cent measure of how many cells are alive, often set against a control.

For data set [1], the system named is SARS-CoV-2. The data set is described as follows: microbe, parasite or virus in culture. It is filed as cell-based. The settings on record: for Inhibition of SARS-CoV-2 replication at single concentration: 50 µM, initial screening; for Inhibition of SARS-CoV-2 replication at single concentration / EC50: Vero cells; for SI: CC50/EC50, Vero cells, SARS-CoV-2; for EC50: Severe acute respiratory syndrome coronavirus 2, MOI 0.1, 48 h, 50% reduction in viral titers, read-out: EC50 (µM) (95% CI).

Data set [2] is described as follows: in vitro. The note with it: human.
A further data set deals with SARS-CoV-2 RdRp (Severe acute respiratory syndrome coronavirus 2, UniProt P0DTD1). The data set is described as follows: biochemical. The note with it: for Inhibition of SARS-CoV-2 RdRp at one concentration: in vitro RdRp assay, 100 µM. It is filed as biochemical.
Data set [3] can be described thus: in vitro. The note with it: cat (Felis catus).
Data set [4] relates to SARS-CoV-2. The data set is described as follows: microbe, parasite or virus in culture. It is filed as cell-based. The settings on record: for SI: CC50/EC50, CaCo-2 cells, SARS-CoV-2; for EC50: Severe acute respiratory syndrome coronavirus 2, CaCo-2 cells, MOI 0.1, 48 h, 50% reduction in viral titers, read-out: EC50 (µM) (95% CI).
The next data set has as its system FIPV. The data set is described as follows: Viral titer reduction assay, FIPV in CRFK cells (plaque assay readout). The data set is classed as cell-based, feline infectious peritonitis virus. The note with it: for Inhibition of FIPV replication at single concentration: 50 µM, initial screening; for Inhibition of FIPV replication at single concentration / EC50 / Anti-FIPV activity lower compared with remdesivir: CRFK cells; for SI: CC50/EC50, CRFK cells; for SI / EC50: FIPV; for EC50: MOI 0.1, 48 h, 50% reduction in viral titers, read-out: EC50 (µM) (95% CI); for Anti-FIPV activity lower compared with remdesivir: relative to remdesivir EC50.

Data set [5] can be described thus: in vitro. The note with it: African green monkey.
A further data set has as its system Vero cells. The note with it: 50 µM.
In the next data set the test system is CaCo-2 cells. The settings on record: 50 µM.
Data set [6] is described as follows: Cytotoxicity (Cell Counting Kit-8, WST-8) in CaCo-2 cells. The note with it: human.
Data set [7] can be described thus: Cytotoxicity (Cell Counting Kit-8, WST-8) in CRFK cells. The settings on record: cat (Felis catus). On the technique in general: Formazan colour is commonly taken as a measure of viable cells.
Data set [8] can be described thus: Cytotoxicity (Cell Counting Kit-8, WST-8) in Vero cells. The settings on record: African green monkey.
Where [9] appears, read: radioactive primer extension assay, n = 3, ± standard error of the mean, read-out: IC50.

Turning to `O=C(N[C@@H](Cc1ccc(O)cc1)C(=O)O)c1cc(-c2ccccc2)c(=O)n2c1sc1ccc(OC3CCCCC3)cc12` [Compound 16, reference compound], the “Inhibition of SARS-CoV-2 replication at single concentration” value (“Inhibition of SARS-CoV-2 replication” below) in the data set with SARS-CoV-2 [1] is “completely inhibit”. Further, the SI is on record as over 76.5 with SARS-CoV-2 [1]; over 70 in the data set with SARS-CoV-2 [1] (listed as HeE1-2Tyr (16)); over 52.7 in the data set on SARS-CoV-2 [4]; over 50 in the data set on SARS-CoV-2 [4] (listed as HeE1-2Tyr (16)); over 47.1 with FIPV; “exceeding 40” in the data set on FIPV (listed as HeE1-2Tyr (16)). In addition, the EC50 worked out at 0.653 µM in the data set on SARS-CoV-2 [1], 0.949 µM with SARS-CoV-2 [4] and 1.06 µM with FIPV. Also, the CC50 at 48 h in the data set “in vitro [2]”, in the data set “in vitro [3]” and in “in vitro [5]” was over 50 µM in each case. On SARS-CoV-2 RdRp, this compound yielded an IC50 of 27.6 ± 2.1 µM. Besides, the “Inhibition of SARS-CoV-2 RdRp at one concentration” value (“Inhibition of SARS-CoV-2 RdRp” below) at SARS-CoV-2 RdRp is “inhibit”. The “Inhibition of FIPV replication at single concentration” value (shortened to “Inhibition of FIPV replication”) with FIPV is “completely inhibit”. In addition, the “Anti-FIPV activity lower compared with remdesivir” value in the data set on FIPV is given as “approx. 5 fold”.

Consider `O=C(N[C@@H](Cc1ccccc1)C(=O)O)c1cc(-c2ccccc2)c(=O)n2c1sc1ccc(OC3CCCCC3)cc12` [Compound 17], for which, in the data set with Vero cells, the Cell viability result was “approx. 125 % of untreated cells”. For the same compound, in the data set with SARS-CoV-2 [1], the “Inhibition of SARS-CoV-2 replication” value was “completely inhibit”, the SI is over 94.8 and the EC50 is 0.527 µM. In “in vitro [2]”, this compound returned a CC50 at 48 h of over 50 µM. Besides, the Cell viability result in the data set with CaCo-2 cells is “approx. 125 % of untreated cells”. Moreover, the “Inhibition of SARS-CoV-2 RdRp” value at SARS-CoV-2 RdRp is “inhibit”. The IC50 on SARS-CoV-2 RdRp (setting [9]) worked out at 41.2 ± 1.7 µM. In “in vitro [3]”, this compound showed a CC50 at 48 h of over 50 µM and a viability at 48 h, 50 µM of about 60%. Also, in the data set with SARS-CoV-2 [4], the SI is over 50.2 and the concentration for a half-maximal effect (EC50) was 0.996 µM. Further, in the data set with FIPV, the “Inhibition of FIPV replication” value was “completely inhibit”, the EC50 worked out at 0.999 µM and the “Anti-FIPV activity lower compared with remdesivir” value was “approx. 5 fold”. This compound registered a CC50 at 48 h in “in vitro [5]” of over 50 µM.

Take `CCC(CC)COC(=O)[C@H](C)N[P@](=O)(OC[C@H]1O[C@@](C#N)(c2ccc3c(N)ncnn23)[C@H](O)[C@@H]1O)Oc1ccccc1` [Remdesivir]: the CC50 at 48 h in data set [6], in [7] and in data set [8] was over 50 µM each time. For the same compound, the SI is given as over 55.5 in the data set on SARS-CoV-2 [1] and over 224.2 in the data set on FIPV. Also, the EC50 is 0.901 µM with SARS-CoV-2 [1] and under 0.3 µM in the data set with SARS-CoV-2 [4].

In the case of `O=C(N[C@@H](Cc1ccc(O)cc1)C(=O)O)c1ccc(=O)n2c1sc1ccc(OC3CCCCC3)cc12` [Compound 18], the “Inhibition of SARS-CoV-2 replication” value in the data set on SARS-CoV-2 [1] is “inactive”. The SI with SARS-CoV-2 [1] is recorded as over 1; in the data set with SARS-CoV-2 [4], over 2; in the data set on FIPV, over 1. For the same compound, the EC50 in the data set with SARS-CoV-2 [1] was over 50 µM; with SARS-CoV-2 [4], over 25 µM. The CC50 at 48 h in “in vitro [2]”, in “in vitro [3]” and in “in vitro [5]” was over 50 µM throughout. For the same compound, the “Inhibition of SARS-CoV-2 RdRp” value at SARS-CoV-2 RdRp was “inhibit”. Further, the 50% inhibitory concentration (IC50) on SARS-CoV-2 RdRp (setting [9]) was determined as 85.5 ± 2 µM. The “Inhibition of FIPV replication” value in the data set on FIPV is “inactive”.
